Measurements reported in ChEMBL document CHEMBL5385881, “Design, synthesis, and discovery of Eudistomin Y derivatives as lysosome-targeted antiproliferation agents” (Eur J Med Chem, 2023).

Columns and labels:
[1] = tested on: SGC-7901; experiment: Cytotoxicity against human SGC-7901 cells assessed as cell inhibition measured after 72 hrs by MTT assay; assay type: functional, cell-based; details: SGC-7901, 72 h
[2] = tested on: HepG2; experiment: Cytotoxicity against human HepG2 cells assessed as cell inhibition measured after 72 hrs by MTT assay; assay type: functional, cell-based; details: HepG2, 72 h
[3] = tested on: MDA-MB-231; experiment: Cytotoxicity against human MDA-MB-231 cells assessed as cell inhibition measured after 72 hrs by MTT assay; assay type: functional, cell-based; details: MDA-MB-231, 72 h
[4] = tested on: LS180; experiment: Cytotoxicity against human LS180 cells assessed as cell inhibition measured after 72 hrs by MTT assay; assay type: functional, cell-based; details: LS180, 72 h
[5] = tested on: A549; experiment: Cytotoxicity against human A549 cells assessed as cell inhibition measured after 72 hrs by MTT assay; assay type: functional, cell-based; details: A549, 72 h
[6] = Drug uptake in human MDA-MB-231 cells assessed as accumulation by measuring lysosome-specific fluorescent signals in presence of excess H1 at 1 uM incubated for 1 hrs by confocal laser-scanning microscopic analysis; assay type: ADME, cell-based; details: mda-mb-231, 1 h

| Drug uptake [6] | SMILES | IC50 [1] | IC50 [2] | IC50 [3] | IC50 [4] | IC50 [5] |
| --- | --- | --- | --- | --- | --- | --- |
| – | Cc1cccc(Cn2c3ccccc3c3ccnc(C(=O)c4ccccc4)c32)c1 | 25.4 µM | 31.8 µM | 56.5 µM | 19 µM | 33.6 µM |
| – | O=C(c1ccc(OCc2ccccc2)cc1)c1nccc2c1[nH]c1ccccc12 | 55.1 µM | 203 µM | 11.2 µM | 20.7 µM | 15.6 µM |
| – | O=C(c1ccccc1)c1nccc2c3ccccc3n(Cc3ccc([N+](=O)[O-])cc3)c12 | 7.1 µM | 18.7 µM | 31.4 µM | 4.4 µM | 10.2 µM |
| Not Active | O=C(c1ccccc1)c1nccc2c3ccccc3n(Cc3cccc(F)c3)c12 | 28.1 µM | 28.4 µM | 33.5 µM | 20 µM | 31.6 µM |
| – | Cc1cccc(Cn2c3ccccc3c3ccnc(C(=O)c4ccc(O)cc4)c32)c1 | 27.5 µM | 38.8 µM | 65.6 µM | 25.5 µM | 26.8 µM |
